Columns and labels:
KB-V1 cells = experiment: MTT cytotoxicity assay, P-glycoprotein-expressing MDR cell line KB-V1; format: cell-based; conditions: for IC50: Homo sapiens, P-glycoprotein-expressing MDR KB-V1 cells, 72 h incubation, MTT, at least three experiments, read-out: IC50 KBV1; for RR (MDR1 selectivity): ratio of IC50 against KB-3-1 cells divided by IC50 against KB-V1 cells, >1 = MDR1-selective
Description: (§1) The cytotoxicity of the prepared compounds was evaluated at Laboratory of Cell Biology, National Cancer Institute, National Institutes of Health, Bethesda, Md. 20892, Group in Biomolecular, USA, using the following protocol:
KB-3-1 cells (a HeLa deriviative) and its MDR derivative (KB-V1) were grown as previously described. Cell survival was measured by the MTT (3-(4,5-dimethylthiazol-2-yl)-2,5-diphenyltetrazolium bromide) assay as previously described. Briefly, cells were seeded in 100 μL of growth medium at a density of 5000 cells/well in 96-well plates and allowed to establish for 24 h, at which time serially diluted drugs were added in an additional 100 μL of growth medium. Cells were then incubated for 72 h at 37° C. in humidified 5% CO2, at which time the growth medium was drawn and replaced with MTT in IMDM growth medium and incubated for 4 h. The MTT solution was then drawn from the wells, and 100 μL of acidified ethanol solution was added to each well and after 15 min absorption at 560 nm was measured. […]

KB-3-1 cells = experiment: MTT cytotoxicity assay, parental KB-3-1 cell line; format: cell-based; conditions: Homo sapiens, parental KB-3-1 cells (HeLa derivative), 72 h incubation, at least three experiments, read-out: IC50 KB3-1
Description: as §1
KB-3-1 cells (a HeLa deriviative) and its MDR derivative (KB-V1) were grown as previously described. Cell survival was measured by the MTT (3-(4,5-dimethylthiazol-2-yl)-2,5-diphenyltetrazolium bromide) assay as previously described. Briefly, cells were seeded in 100 μL of growth medium at a density of 5000 cells/well in 96-well plates and allowed to establish for 24 h, at which time serially diluted drugs were added in an additional 100 μL of growth medium. Cells were then incubated for 72 h at 37° C. in humidified 5% CO2, at which time the growth medium was drawn and replaced with MTT in IMDM growth medium and incubated for 4 h. The MTT solution was then drawn from the wells, and 100 μL of acidified ethanol solution was added to each well and after 15 min absorption at 560 nm was measured. […] The effect of treatment on cell viability was determined using the luminescent Cell Titer Glo Assay (Promega).

SMILES	IC50 (KB-V1 cells)	RR (MDR1 selectivity) (KB-V1 cells)	IC50 (KB-3-1 cells)
O=C1Nc2ccc(Br)cc2/C1=N/N=C1\C(=O)N(c2ccccc2)c2ccccc21 [Compound 14, (Z)-5-Bromo-3-((Z)-(2-oxo-1-phenylindolin-3-ylidene)hydrazono)indolin-2-one]	8.71 ± 0.27 µM	0.91	7.93 ± 2.11 µM
O=C1Nc2ccc(F)cc2/C1=N/N=C1\C(=O)Nc2ccc(OC(F)(F)F)cc21 [Compound 23, (Z)-5-Fluoro-3-((Z)-(2-oxo-5-(trifluoromethoxy)indolin-3-ylidene)hydrazono)indolin-2-one]	11.6 ± 2.55 µM	1.31	15.2 ± 1.34 µM
O=C1Nc2ccc([N+](=O)[O-])cc2/C1=N/N=C1\C(=O)N(c2ccccc2)c2ccccc21 [Compound 16, (Z)-5-Nitro-3-((Z)-(2-oxo-1-phenylindolin-3-ylidene)hydrazono)indolin-2-one]	48.6 ± 2.32 µM	0.76	37.1 ± 4.05 µM
O=C1Nc2ccc(F)cc2/C1=N/N=C1\C(=O)Nc2ccc(Br)cc21 [Compound 20, (Z)-5-Bromo-3-((Z)-(5-fluoro-2-oxoindolin-3-ylidene)hydrazono)indolin-2-one]	18.6 ± 2.01 µM	0.83	15.4 ± 3.97 µM
O=C1Nc2ccccc2/C1=N/N=C1\C(=O)Nc2ccc(OC(F)(F)F)cc21 [Compound 10, (Z)-3-((Z)-(2-Oxoindolin-3-ylidene)hydrazono)-5-(trifluoromethoxy)indolin-2-one]	5.67 ± 1.18 µM	1.72	9.75 ± 0.11 µM
O=C1Nc2ccccc2/C1=N/N=C1\C(=O)N(c2ccccc2)c2ccccc21 [Compound 4, (Z)-3-((Z)-(2-Oxoindolin-3-ylidene)hydrazono)-1-phenylindolin-2-one]	10.8 ± 1.1 µM	0.81	8.7 ± 2.21 µM
O=C1Nc2ccc(F)cc2/C1=N/N=C1\C(=O)Nc2ccc(F)cc21 [Compound 18, (3Z,3′Z)-3,3′-(Hydrazine-1,2-diylidene)bis(5-fluoroindolin-2-one)]	16.5 ± 6.28 µM	1.23	20.4 ± 4.62 µM
Cc1ccc2c(c1)/C(=N/N=C1\C(=O)N(c3ccccc3)c3ccccc31)C(=O)N2 [Compound 15, (Z)-5-Methyl-3-((Z)-(2-oxo-1-phenylindolin-3-ylidene)hydrazono)indolin-2-one]	8.06 ± 1.68 µM	1.04	8.37 ± 0.62 µM
O=C1Nc2ccccc2/C1=N/N=C1\C(=O)Nc2ccc(Br)cc21 [Compound 7, (Z)-5-Bromo-3-((Z)-(2-oxoindolin-3-ylidene)hydrazono)indolin-2-one]	7.58 ± 1.43 µM	1.28	9.71 ± 0.31 µM
O=C1Nc2ccccc2/C1=N/N=C1\C(=O)Nc2ccc([N+](=O)[O-])cc21 [Compound 9, (Z)-5-Nitro-3-((Z)-(2-oxoindolin-3-ylidene)hydrazono)indolin-2-one]	30.4 ± 6.75 µM	0.96	29.2 ± 2.81 µM
Cc1ccc2c(c1)/C(=N/N=C1\C(=O)Nc3ccc(F)cc31)C(=O)N2 [Compound 21, (Z)-5-Fluoro-3-((Z)-(5-methyl-2-oxoindolin-3-ylidene)hydrazono)indolin-2-one]	17.9 ± 0.82 µM	1.06	18.9 ± 0.46 µM
O=C1Nc2ccccc2/C1=N/N=C1\C(=O)Nc2ccccc21 [Compound 3, (3Z,3′Z)-3,3′-(Hydrazine-1,2-diylidene)diindolin-2-one]	17.3 ± 1.59 µM	0.99	17.1 ± 0.83 µM
O=C1Nc2ccc(Cl)cc2/C1=N/N=C1\C(=O)N(c2ccccc2)c2ccccc21 [Compound 13, (Z)-5-Chloro-3-((Z)-(2-oxo-1-phenylindolin-3-ylidene)hydrazono)indolin-2-one]	6.07 ± 1.19 µM	1.12	6.79 ± 0.63 µM
O=C1Nc2ccc(OC(F)(F)F)cc2/C1=N/N=C1\C(=O)N(c2ccccc2)c2ccccc21 [Compound 17, ((Z)-3-(Z)-(2-oxo-1-phenylindolin-3-ylidene)hydrazono)-5-(trifluoromethoxy)indolin-2-one]	4.8 ± 0.12 µM	1.60	7.67 ± 0.88 µM
O=C1Nc2ccc(F)cc2/C1=N/N=C1\C(=O)Nc2ccc(Cl)cc21 [Compound 19, (Z)-5-Chloro-3-((Z)-(5-fluoro-2-oxoindolin-3-ylidene)hydrazono)indolin-2-one]	11.3 ± 3.26 µM	1.54	17.4 ± 4.41 µM
O=C1Nc2ccccc2/C1=N/N=C1\C(=O)Nc2ccc(Cl)cc21 [Compound 6, (Z)-5-Chloro-3-((Z)-(2-oxoindolin-3-ylidene)hydrazono)indolin-2-one]	7.72 ± 0.5 µM	1.25	9.67 ± 1.74 µM
O=C1Nc2ccccc2/C1=N/N=C1\C(=O)Nc2ccc(F)cc21 [Compound 5, (Z)-5-Fluoro-3-((Z)-(2-oxoindolin-3-ylidene)hydrazono)indolin-2-one]	25.3 ± 10.1 µM	1.11	28.1 ± 2.48 µM
O=C1Nc2ccc(F)cc2/C1=N/N=C1\C(=O)N(c2ccccc2)c2ccccc21 [Compound 12, (Z)-5-Fluoro-3-((Z)-(2-oxo-1-phenylindolin-3-ylidene)hydrazono)indolin-2-one]	11.2 ± 0.61 µM	0.91	10.2 ± 1.52 µM
Cc1ccc2c(c1)/C(=N/N=C1\C(=O)Nc3ccccc31)C(=O)N2 [Compound 8, (Z)-5-Methyl-3-((Z)-(2-oxoindolin-3-ylidene)hydrazono)indolin-2-one]	14.9 ± 1.26 µM	0.81	12.1 ± 3.14 µM
N/N=C1\C(=O)Nc2ccccc21 [Compound 2a, (Z)-3-Hydrazonoindolin-2-one]	125 ± 39.4 µM	–	> 500 µM
O=C1Nc2ccc(F)cc2/C1=N/N=C1\C(=O)Nc2ccc([N+](=O)[O-])cc21 [Compound 22, (Z)-5-Fluoro-3-((Z)-(5-nitro-2-oxoindolin-3-ylidene)hydrazono)indolin-2-one]	38.6 ± 13.5 µM	1.45	56 ± 1.5 µM
O=C1/C(=N\N=C2/C(=O)N(c3ccccc3)c3ccccc32)c2ccccc2N1c1ccccc1 [Compound 11, (3Z,3′Z)-3,3′-(Hydrazine-1,2-diylidene)bis(1-phenylindolin-2-one)]	22 ± 2.37 µM	1.16	25.6 ± 2.39 µM

Source: US8497296B2, “N,N′-hydrazino-bis-isatin derivatives with selective activity against multidrug-resistant cancer cells” (King Saud University, priority 2011, dated 2013)
